Test results taken from ChEMBL document CHEMBL1201862, “PubChem BioAssay data set” (2004).
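In this assay, cells in 96-well plates receive the compound at five concentrations for 48 hours. Endpoints are linearly interpolated between the surrounding concentrations. At the GI50, growth is halved.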 The source made the active and inactive calls. No stated cut-off is given here; in the data, active = GI50 up to about 1.1 µM and inactive = higher.

Key:
Test in all cases: growth of human tumour cells (NCI), 48 h
MDA-MB-231 = test system: MDA-MB-231
NCI-H226 = test system: NCI-H226
SNB-19 = test system: SNB-19
MOLT-4 = test system: MOLT-4
A549 = test system: A549
HOP-92 = test system: HOP-92
UACC-62 = test system: UACC-62
EKVX = test system: EKVX
OVCAR-3 = test system: OVCAR-3
TK-10 = test system: TK-10
HCT-116 = test system: HCT-116
SR = test system: SR
PC-3 = test system: PC-3
MCF7 = test system: MCF7
LOX IMVI = test system: LOX IMVI
RPMI-8226 = test system: RPMI-8226
IGROV-1 = test system: IGROV-1
HCC 2998 = test system: HCC 2998
OVCAR-5 = test system: OVCAR-5
HOP-18 = test system: HOP-18

SMILES	GI50 (MDA-MB-231)	GI50 (NCI-H226)	GI50 (SNB-19)	GI50 (MOLT-4)	GI50 (A549)	GI50 (HOP-92)	GI50 (UACC-62)	GI50 (EKVX)	GI50 (OVCAR-3)	GI50 (TK-10)	GI50 (HCT-116)	GI50 (SR)	GI50 (PC-3)	GI50 (MCF7)	GI50 (LOX IMVI)	GI50 (RPMI-8226)	GI50 (IGROV-1)	GI50 (HCC 2998)	GI50 (OVCAR-5)	GI50 (HOP-18)
COc1cc2c3c(c1OC)-c1cc4c(cc1CC3(C#N)N(C(=O)c1ccccc1)CC2)OCO4 (stereo not given)	67.6 µM (inactive)	37.8 µM (inactive)	22.2 µM (inactive)	68.4 µM (inactive)	37.5 µM (inactive)	8.39 µM (inactive)	16.4 µM (inactive)	45.8 µM (inactive)	40.5 µM (inactive)	36 µM (inactive)	31.9 µM (inactive)	65.9 µM (inactive)	> 76.4 µM (inactive)	91.6 µM (inactive)	> 56.8 µM (inactive)	> 87.5 µM (inactive)	33 µM (inactive)	> 100 µM (inactive)	> 56.2 µM (inactive)	21.2 µM (inactive)
O=C(NCc1ccccc1)c1cc2ccc(O)c(O)c2cn1	–	40 µM (inactive)	35.4 µM (inactive)	–	38.5 µM (inactive)	19.1 µM (inactive)	18.5 µM (inactive)	> 100 µM (inactive)	18.2 µM (inactive)	> 100 µM (inactive)	17.7 µM (inactive)	32.6 µM (inactive)	–	–	3.82 µM (inactive)	19.1 µM (inactive)	23.7 µM (inactive)	> 100 µM (inactive)	26 µM (inactive)	20.7 µM (inactive)
COc1cc(C2c3cc4c(cc3[C@H](NC(=O)c3cccs3)C3COC(=O)[C@H]23)OCO4)cc(OC)c1OC (stereo not given in full)	< 0.01 µM (active)	0.668 µM (active)	< 0.018 µM (active)	< 0.0149 µM (active)	< 0.019 µM (active)	0.0198 µM (active)	< 0.0128 µM (active)	0.0731 µM (active)	0.0361 µM (active)	> 40.9 µM (inactive)	< 0.0131 µM (active)	0.0122 µM (active)	< 0.01 µM (active)	< 0.01 µM (active)	< 0.0107 µM (active)	0.0134 µM (active)	0.0147 µM (active)	< 0.0181 µM (active)	> 46.9 µM (inactive)	> 100 µM (inactive)
CCCCCCCCCCCC[N+]12CC[N+](C)(CC1)CC2	–	18.3 µM (inactive)	14 µM (inactive)	27.9 µM (inactive)	54.7 µM (inactive)	14.9 µM (inactive)	22.6 µM (inactive)	> 100 µM (inactive)	64.1 µM (inactive)	1.89 µM (inactive)	38.7 µM (inactive)	6.18 µM (inactive)	–	–	19.4 µM (inactive)	15.8 µM (inactive)	1.98 µM (inactive)	8.09 µM (inactive)	17.1 µM (inactive)	43.6 µM (inactive)
O=C1CCc2ccc(O)c(c2)Oc2ccc(cc2)[C@@H]2O[C@@H]2CO1	–	40.5 µM (inactive)	82.6 µM (inactive)	23.9 µM (inactive)	56.8 µM (inactive)	23.7 µM (inactive)	30.5 µM (inactive)	59.8 µM (inactive)	32.8 µM (inactive)	73.5 µM (inactive)	48.2 µM (inactive)	30.1 µM (inactive)	–	–	40.8 µM (inactive)	28.9 µM (inactive)	17.8 µM (inactive)	> 100 µM (inactive)	54.2 µM (inactive)	25.6 µM (inactive)
